Where two headings read alike, the source gives them in different places.
Legend:
Type in all cases: cell-based
NR2F6 = target: T1, NR2F6 (Homo sapiens, UniProt P10588); assay: NR2F6 agonist screening, Firefly signal cmpd/DMSO
T1 construct: expressed in transfected cells; also transient transfection
T1 sequence (P10588 1-404): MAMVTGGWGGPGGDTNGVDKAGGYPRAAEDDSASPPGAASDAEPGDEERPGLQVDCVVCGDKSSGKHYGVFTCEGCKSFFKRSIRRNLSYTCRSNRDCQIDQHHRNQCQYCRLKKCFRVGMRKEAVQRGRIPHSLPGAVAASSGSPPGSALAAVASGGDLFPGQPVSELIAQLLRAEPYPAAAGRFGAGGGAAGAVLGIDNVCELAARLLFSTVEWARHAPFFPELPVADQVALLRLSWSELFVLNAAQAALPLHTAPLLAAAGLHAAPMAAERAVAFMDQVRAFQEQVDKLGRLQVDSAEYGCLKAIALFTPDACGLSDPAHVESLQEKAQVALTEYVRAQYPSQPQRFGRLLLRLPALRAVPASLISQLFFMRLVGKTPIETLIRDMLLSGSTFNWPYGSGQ

ERα [1] = target: T2, ERα (Homo sapiens, UniProt P03372); assay: Counterscreening, Firefly signal with ERα transient transfection (Firefly_ERa)
T2 construct: expressed in transfected cells
T2 sequence (P03372 1-595): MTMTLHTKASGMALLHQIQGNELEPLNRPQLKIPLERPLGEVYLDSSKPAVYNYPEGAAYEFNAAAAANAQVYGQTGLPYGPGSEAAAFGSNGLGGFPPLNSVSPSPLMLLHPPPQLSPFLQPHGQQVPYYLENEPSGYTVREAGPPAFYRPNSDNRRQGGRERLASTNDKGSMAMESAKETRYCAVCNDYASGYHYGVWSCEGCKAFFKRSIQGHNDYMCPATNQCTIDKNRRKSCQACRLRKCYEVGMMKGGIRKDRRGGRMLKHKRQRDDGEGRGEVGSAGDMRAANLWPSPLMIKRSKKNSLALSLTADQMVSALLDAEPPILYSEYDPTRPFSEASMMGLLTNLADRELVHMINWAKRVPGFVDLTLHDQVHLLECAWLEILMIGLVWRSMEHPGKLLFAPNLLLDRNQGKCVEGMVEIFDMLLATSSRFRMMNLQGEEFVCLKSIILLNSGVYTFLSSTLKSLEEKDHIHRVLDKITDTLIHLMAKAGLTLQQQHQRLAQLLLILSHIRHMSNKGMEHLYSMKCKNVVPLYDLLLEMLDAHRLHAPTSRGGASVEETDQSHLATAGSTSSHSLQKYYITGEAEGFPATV

Renilla = Renilla signal in NR2F6 agonist screening, cmpd/DMSO; conditions: for fold induction at 2 µM / fold induction at 10 µM / fold induction at 40 µM: Renilla, read-out: Renilla F4, cmpd/DMSO (mean)
Renilla_ERa = assay: Renilla signal in ERα counterscreen (Renilla_ERa); conditions: for fold induction at 2 µM / fold induction at 10 µM / fold induction at 40 µM: read-out: Renilla ERalpha transient, cmpd/DMSO (mean)
ERα [2] = target: T2, ERα; assay: Counterscreening, Firefly signal with ERα transient transfection (Firefly_ERa); conditions: 10 uM
Experimental: The methodology for screening candidate compounds as NR2F6 agonists was as follows: For primary screening, hit criteria was ACT %>DMSO control+5*SD (DSO control) at 10 μM, or any compound with S/B>2. For rescreening, hit criteria was ACT %>DMSO control+3*SD (DSO control) in each replicate at 10 μM. For counterscreening, hit criteria was mean ACT<DMSO control+3*SD (DMSO control) with ERα transient transfection in duplicate at 10 μM.

Row | Structure (SMILES) | Firefly F4, cmpd/DMSO (mean) (NR2F6; 2 uM, clone F4) | Firefly F4, cmpd/DMSO (mean) (NR2F6; 10 uM, clone F4) | Firefly F4, cmpd/DMSO (mean) (NR2F6; 40 uM, clone F4) | Firefly ERalpha transient, cmpd/DMSO (mean) (ERα [1]; 2 uM) | Firefly ERalpha transient, cmpd/DMSO (mean) (ERα [1]; 40 uM) | fold induction at 2 µM (Renilla; 2 uM, clone F4) | fold induction at 10 µM (Renilla; 10 uM, clone F4) | fold induction at 40 µM (Renilla; 40 uM, clone F4) | fold induction at 2 µM (Renilla_ERa; 2 uM) | fold induction at 10 µM (Renilla_ERa; 10 uM) | fold induction at 40 µM (Renilla_ERa; 40 uM) | Firefly ERalpha transient, cmpd/DMSO (mean) (ERα [2]) | Firefly F4, cmpd/DMSO (mean) (NR2F6; Table 15, 2 uM) | Firefly F4, cmpd/DMSO (mean) (NR2F6; Table 15, 10 uM) | Firefly F4, cmpd/DMSO (mean) (NR2F6; Table 15, 40 uM) | Firefly ERalpha transient, cmpd/DMSO (mean) (ERα [1]; Table 15, 2 uM) | Firefly ERalpha transient, cmpd/DMSO (mean) (ERα [1]; Table 15, 40 uM) | Firefly ERalpha transient, cmpd/DMSO (mean) (ERα [2]; Table 15) | fold induction at 2 µM (Renilla; Table 15, 2 uM) | fold induction at 10 µM (Renilla; Table 15, 10 uM) | also measured
1 | CCOC(=O)c1cnc2c(C)cc(C)cc2c1N1CCCC(N(C)C)C1 (stereo not drawn) [Compound Z27] | 1.3 | 1.3 | 0.7 | 1.3 | 0.5 | 1.2 | 1.2 | 0.9 | 1.2 | 1.2 | 0.8 | 2.1 |  |  |  |  |  |  |  |  | 
2 | CS(=O)(=O)Nc1ccc([N+](=O)[O-])c2nonc12 [Compound Z13] |  |  |  |  |  |  |  |  |  |  |  |  | 1.0 | 0.9 | 1.6 | 1.2 | 1.1 | 1.7 |  |  | Renilla F4, cmpd/DMSO (mean) (Renilla; Table 15, 2 uM): 0.8; Renilla F4, cmpd/DMSO (mean) (Renilla; Table 15, 10 uM): 0.7; Renilla F4, cmpd/DMSO (mean) (Renilla; Table 15, 40 uM): 0.4; Renilla ERalpha transient, cmpd/DMSO (mean) (Renilla_ERa; Table 15, 2 uM): 0.8; Renilla ERalpha transient, cmpd/DMSO (mean) (Renilla_ERa; Table 15, 10 uM): 0.6; Renilla ERalpha transient, cmpd/DMSO (mean) (Renilla_ERa; Table 15, 40 uM): 0.4
3 | CCOC(=O)c1cnc2c(C)cc(C)cc2c1NCCCOC [Compound Z71] |  |  |  |  |  |  |  |  |  |  |  |  | 0.8 | 1.0 | 0.8 | 1.4 | 0.4 | 1.0 | 1.1 | 0.9 | fold induction at 40 µM (Renilla; Table 15, 40 uM): 0.4; fold induction at 2 µM (Renilla_ERa; Table 15, 2 uM): 1; fold induction at 10 µM (Renilla_ERa; Table 15, 10 uM): 1; fold induction at 40 µM (Renilla_ERa; Table 15, 40 uM): 0.5
4 | CC(=O)Nc1ccc(NS(C)(=O)=O)c2nonc12 [Compound Z15] |  |  |  |  |  |  |  |  |  |  |  |  | 1.0 | 0.5 | 0.9 | 0.9 | 1.1 | 1.1 | 0.8 | 1.1 | fold induction at 40 µM (Renilla; Table 15, 40 uM): 1; fold induction at 2 µM (Renilla_ERa; Table 15, 2 uM): 1; fold induction at 10 µM (Renilla_ERa; Table 15, 10 uM): 1; fold induction at 40 µM (Renilla_ERa; Table 15, 40 uM): 0.9
5 | CCCNc1nc(N2CCOCC2)nc(N2CC3CC(C2)c2cccc(=O)n2C3)n1 (stereo not drawn) [Compound 37] | 1.3 | 1.1 | 1.3 | 1.1 | 1.2 | 0.9 | 1.2 | 1.3 | 1.1 | 1.1 | 1.1 | 1.4 |  |  |  |  |  |  |  |  | 
6 | Cc1cc(C)c2ncc(C(=O)N3CCCC3)c(NCCCN(C)C)c2c1 [Compound Z32] | 1.8 | 0.9 | 1.5 | 1.8 | 1.5 | 1 | 1 | 1.3 | 1 | 1.1 | 0.8 | 0.8 |  |  |  |  |  |  |  |  | 
7 | COc1cccc(-c2noc(Cn3ncccc3=O)n2)c1 [Compound Z5] |  |  |  |  |  |  |  |  |  |  |  |  | 1.5 | 0.9 | 1.2 | 2.4 | 2.4 | 2.5 | 1 | 0.9 | fold induction at 40 µM (Renilla; Table 15, 40 uM): 1.2; fold induction at 2 µM (Renilla_ERa; Table 15, 2 uM): 1; fold induction at 10 µM (Renilla_ERa; Table 15, 10 uM): 1; fold induction at 40 µM (Renilla_ERa; Table 15, 40 uM): 1
8 | COc1ccc2nc(C(F)(F)F)c(C#N)c(NCc3ccc(Cl)cc3)c2c1 [Compound Z38] | 0.5 | 0.8 | 0.6 | 0.9 | 0.5 | 0.7 | 0.6 | 0.4 | 0.9 | 0.6 | 0.6 | 0.5 |  |  |  |  |  |  |  |  | 
9 | O=c1cccc2n1CC1CC2CN(c2nc(NCCC3=CCCCC3)nc(N3CCOCC3)n2)C1 (stereo not drawn) [Compound 39] | 1.1 | 0.9 | 0.9 | 0.9 | 0.9 | 1.2 | 1.4 | 1 | 1.1 | 1.2 | 1.2 | 0.6 |  |  |  |  |  |  |  |  | 
10 | CCOC(=O)c1cnc2c(C)cc(C)cc2c1N1CCC(N(C)C)CC1 [Compound Z68] |  |  |  |  |  |  |  |  |  |  |  |  | 1.5 | 1.1 | 1.2 | 1.1 | 0.7 | 1.5 | 0.9 | 1 | fold induction at 40 µM (Renilla; Table 15, 40 uM): 0.6; fold induction at 2 µM (Renilla_ERa; Table 15, 2 uM): 1.1; fold induction at 10 µM (Renilla_ERa; Table 15, 10 uM): 0.9; fold induction at 40 µM (Renilla_ERa; Table 15, 40 uM): 0.6

From patent US11377442B2, “Small molecule agonists and antagonists of NR2F6 activity” (ZANDER THERAPEUTICS, INC., priority 2016, dated 2022)
